Experimental data from PubChem BioAssay (NCI).
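Here, GI50 denotes the concentration required for 50% inhibition of growth. TGI denotes the concentration required for complete inhibition of growth.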

What was measured:
Assay in all cases: NCI tumour cell line growth inhibition, 384-well format
786-0 renal = system: 786-0 renal
A498 renal = system: A498 renal
A549 NSCLC = system: A549 NSCLC
ACHN renal = system: ACHN renal
BT-549 breast = system: BT-549 breast
CAKI-1 renal = system: CAKI-1 renal
CCRF-CEM leukemia = system: CCRF-CEM leukemia
COLO 205 colon = system: COLO 205 colon
DU-145 prostate = system: DU-145 prostate
EKVX NSCLC = system: EKVX NSCLC
HCC-2998 colon = system: HCC-2998 colon
HCT-116 colon = system: HCT-116 colon
HCT-15 colon = system: HCT-15 colon
HL-60(TB) leukemia = system: HL-60(TB) leukemia
HOP-62 NSCLC = system: HOP-62 NSCLC
HOP-92 NSCLC = system: HOP-92 NSCLC
HS 578T breast = system: HS 578T breast
HT29 colon = system: HT29 colon
IGROV1 ovarian = system: IGROV1 ovarian
K-562 leukemia = system: K-562 leukemia
KM12 colon = system: KM12 colon
LOX IMVI melanoma = system: LOX IMVI melanoma
M14 melanoma = system: M14 melanoma
MALME-3M melanoma = system: MALME-3M melanoma
MCF7 breast = system: MCF7 breast
MDA-MB-231 breast = system: MDA-MB-231 breast
MDA-MB-468 breast = system: MDA-MB-468 breast
MOLT-4 leukemia = system: MOLT-4 leukemia
NCI-H226 lung = system: NCI-H226 lung
NCI-H23 lung = system: NCI-H23 lung
NCI-H322M lung = system: NCI-H322M lung
NCI-H460 NSCLC = system: NCI-H460 NSCLC
NCI-H522 lung = system: NCI-H522 lung
NCI/ADR-RES ovarian = system: NCI/ADR-RES ovarian
OVCAR-4 ovarian = system: OVCAR-4 ovarian
OVCAR-5 ovarian = system: OVCAR-5 ovarian
PC-3 prostate = system: PC-3 prostate
RXF 393 renal = system: RXF 393 renal
SF-268 CNS = system: SF-268 CNS
SF-295 CNS = system: SF-295 CNS
SF-539 CNS = system: SF-539 CNS
SK-MEL-2 melanoma = system: SK-MEL-2 melanoma
SK-MEL-28 melanoma = system: SK-MEL-28 melanoma
SK-MEL-5 melanoma = system: SK-MEL-5 melanoma
SK-OV-3 ovarian = system: SK-OV-3 ovarian
SN12C renal = system: SN12C renal
SNB-19 CNS = system: SNB-19 CNS
SNB-75 CNS = system: SNB-75 CNS
SR leukemia = system: SR leukemia
SW-620 colon = system: SW-620 colon
T-47D breast = system: T-47D breast
TK-10 renal = system: TK-10 renal
U251 glioblastoma = system: U251 glioblastoma
UACC-257 melanoma = system: UACC-257 melanoma
UACC-62 melanoma = system: UACC-62 melanoma
UO-31 renal = system: UO-31 renal

In the case of `Cc1cncc2cccc(S(=O)(=O)N3CCCNC[C@@H]3C)c12`, the GI50 ([…]-0 renal) is reported as 13.6 µM, the TGI (786-0 renal) is reported as > 100 µM and the GI50 (A498 renal) is reported as > 100 µM. For the same molecule, the TGI (A498 renal) was > 100 µM, the GI50 (A549 NSCLC) was 11.2 µM and the TGI (A549 NSCLC) was 49.4 µM. For the same molecule, the GI50 (ACHN renal) was 25.9 µM, the TGI (ACHN renal) was > 100 µM and the GI50 (BT-549 breast) was 1.8 µM. For the same molecule, the TGI (BT-549 breast) was 7.48 µM, the GI50 (CAKI-1 renal) was 7.51 µM and the TGI (CAKI-1 renal) was 24.7 µM. For the same molecule, the GI50 (CCRF-CEM leukemia) was 1.25 µM, the TGI (CCRF-CEM leukemia) was 2.57 µM and the GI50 (COLO 205 colon) was 3.03 µM. The TGI (COLO 205 colon) was 11 µM, the GI50 (DU-145 prostate) was 5.94 µM and the TGI (DU-145 prostate) was > 100 µM. The GI50 (EKVX NSCLC) was 16.3 µM, the TGI (EKVX NSCLC) was > 100 µM and the GI50 (HCC-2998 colon) was 42.4 µM. The TGI (HCC-2998 colon) was > 100 µM, the GI50 (HCT-116 colon) was 7.52 µM and the TGI (HCT-116 colon) was 48 µM. The GI50 (HCT-15 colon) was 11.2 µM, the TGI (HCT-15 colon) was > 100 µM and the GI50 (HL-60(TB) leukemia) was 1.49 µM. The TGI (HL-60(TB) leukemia) was 3.09 µM, the GI50 (HOP-62 NSCLC) was 11.3 µM and the TGI (HOP-62 NSCLC) was 62.4 µM. The GI50 (HOP-92 NSCLC) was 10.3 µM, the TGI (HOP-92 NSCLC) was 36.1 µM and the GI50 (HS 578T breast) was 1.89 µM. For the same molecule, the TGI (HS 578T breast) was 4.55 µM, the GI50 (HT29 colon) was 4.96 µM and the TGI (HT29 colon) was > 100 µM. It also gave a GI50 (IGROV1 ovarian) of 7.65 µM, a TGI (IGROV1 ovarian) of 58.1 µM and a GI50 (K-562 leukemia) of 0.537 µM. For the same molecule, the TGI (K-562 leukemia) was > 100 µM, the GI50 (KM12 colon) was 16.4 µM and the TGI (KM12 colon) was 81.2 µM. The GI50 (LOX IMVI melanoma) was 12.1 µM, the TGI (LOX IMVI melanoma) was 31.8 µM and the GI50 (M14 melanoma) was > 100 µM. For the same molecule, the TGI (M14 melanoma) was > 100 µM, the GI50 (MALME-3M melanoma) was > 100 µM and the TGI (MALME-3M melanoma) was > 100 µM. For the same molecule, the GI50 (MCF7 breast) was 28 µM, the TGI (MCF7 breast) was > 100 µM and the GI50 (MDA-MB-231 breast) was 14.9 µM. It also gave a TGI (MDA-MB-231 breast) of 43.8 µM, a GI50 (MDA-MB-468 breast) of 1.02 µM and a TGI (MDA-MB-468 breast) of 2.28 µM. For the same molecule, the GI50 (MOLT-4 leukemia) was 0.492 µM, the TGI (MOLT-4 leukemia) was 1.65 µM and the GI50 (NCI-H226 lung) was 13.2 µM. The TGI (NCI-H226 lung) was 68.2 µM, the GI50 (NCI-H23 lung) was 10.8 µM and the TGI (NCI-H23 lung) was 52 µM. The GI50 (NCI-H322M lung) was 87.7 µM, the TGI (NCI-H322M lung) was > 100 µM and the GI50 (NCI-H460 NSCLC) was 2.54 µM. The TGI (NCI-H460 NSCLC) was 67.8 µM, the GI50 (NCI-H522 lung) was 1.71 µM and the TGI (NCI-H522 lung) was 5.04 µM. The GI50 (NCI/ADR-RES ovarian) was 3.63 µM, the TGI (NCI/ADR-RES ovarian) was > 100 µM and the GI50 (OVCAR-4 ovarian) was > 100 µM. For the same molecule, the TGI (OVCAR-4 ovarian) was > 100 µM, the GI50 (OVCAR-5 ovarian) was 25.5 µM and the TGI (OVCAR-5 ovarian) was > 100 µM. The GI50 (PC-3 prostate) was 8.81 µM, the TGI (PC-3 prostate) was > 100 µM and the GI50 (RXF 393 renal) was 5.06 µM. It also gave a TGI (RXF 393 renal) of 22.6 µM, a GI50 (SF-268 CNS) of 11.7 µM and a TGI (SF-268 CNS) of 87.3 µM. The GI50 (SF-295 CNS) was 4.35 µM, the TGI (SF-295 CNS) was > 100 µM and the GI50 (SF-539 CNS) was 4.32 µM. For the same molecule, the TGI (SF-539 CNS) was 20.1 µM, the GI50 (SK-MEL-2 melanoma) was 7.56 µM and the TGI (SK-MEL-2 melanoma) was 42.4 µM. For the same molecule, the GI50 (SK-MEL-28 melanoma) was > 100 µM, the TGI (SK-MEL-28 melanoma) was > 100 µM and the GI50 (SK-MEL-5 melanoma) was 5.64 µM. For the same molecule, the TGI (SK-MEL-5 melanoma) was > 100 µM, the GI50 (SK-OV-3 ovarian) was 18.5 µM and the TGI (SK-OV-3 ovarian) was > 100 µM. The GI50 (SN12C renal) was 15.1 µM, the TGI (SN12C renal) was 61.1 µM and the GI50 (SNB-19 CNS) was 8.41 µM. For the same molecule, the TGI (SNB-19 CNS) was > 100 µM, the GI50 (SNB-75 CNS) was 1.66 µM and the TGI (SNB-75 CNS) was 10 µM. For the same molecule, the GI50 (SR leukemia) was 0.227 µM, the TGI (SR leukemia) was 0.389 µM and the GI50 (SW-620 colon) was 2.74 µM. For the same molecule, the TGI (SW-620 colon) was 10.7 µM, the GI50 (T-47D breast) was > 100 µM and the TGI (T-47D breast) was > 100 µM. It also gave a GI50 (TK-10 renal) of 10.1 µM, a TGI (TK-10 renal) of 37.3 µM and a GI50 (U251 glioblastoma) of 5.17 µM. For the same molecule, the TGI (U251 glioblastoma) was > 100 µM, the GI50 (UACC-257 melanoma) was > 100 µM and the TGI (UACC-257 melanoma) was > 100 µM. For the same molecule, the GI50 (UACC-62 melanoma) was 2.04 µM, the TGI (UACC-62 melanoma) was 50.2 µM and the GI50 (UO-31 renal) was 10.6 µM. For the same molecule, the TGI (UO-31 renal) was 24 µM.
